Experimental data published in ChEMBL document CHEMBL3351876 (Eur J Med Chem, 2014).

How the values were obtained:
[1] = tested on: Plasmodium falciparum; assay: Antimalarial activity against chloroquine-resistant ring stage Plasmodium falciparum W2 assessed as parasitemia after 48 hrs by flow cytometry; format: functional, organism-based; settings: W2, 48 h
[2] = target: Heme; assay: Binding affinity to heme assessed as inhibition of beta-haemozoin formation by UV-vis spectra analysis
[3] = tested on: HeLa; assay: Cytotoxicity against human HeLa cells after 24 hrs by trypan blue exclusion assay; format: cell-based
[4] = Selectivity index, ratio of CC50 for human HeLa cells to IC50 for chloroquine-resistant ring stage Plasmodium falciparum W2; format: functional

Row | Structure (SMILES) | IC50 [1] [µM] | IC50 [2] [µM] | IC50 [3] [µM] | Ratio IC50 [4]
1 | O=C1/C(=C/C=C/c2ccccc2)NC(=S)N1CCCCNc1ccnc2cc(Cl)ccc12 | 0.0572 | 28.4 | > 100 | >1747
2 | Cc1ccc(N2C(=O)[C@@H](NC(=S)Nc3ccc(F)cc3)[C@H]2/C=C/c2ccccc2)cc1 | > 10 |  |  | 
3 | O=C1/C(=C/C=C/c2ccccc2)NC(=S)N1CCNc1ccnc2cc(Cl)ccc12 | 0.0398 | 13.9 | 72 | 1807
4 | NCCN1C(=O)/C(=C/C=C/c2ccccc2)NC1=S | > 10 |  |  | 
5 | O=C1[C@H](NC(=S)Nc2ccnc3cc(Cl)ccc23)[C@H](/C=C/c2ccccc2)N1C1CCCCC1 | 6.13 |  |  | 
6 | O=C1[C@H](NC(=S)Nc2ccnc3cc(Cl)ccc23)[C@H](/C=C/c2ccccc2)N1c1ccc(F)cc1 | > 10 |  |  | 
7 | Cc1ccc(N2C(=O)[C@H](NC(=S)Nc3ccnc4cc(Cl)ccc34)[C@@H]2/C=C/c2ccccc2)cc1 | > 10 |  |  | 
8 | CCCCN1C(=O)/C(=C/C=C/c2ccccc2)NC1=S | > 10 |  |  | 
9 | O=C1/C(=C/C=C/c2ccccc2)NC(=S)N1CCCCCCNc1ccnc2cc(Cl)ccc12 | 0.387 |  |  | 
10 | O=C1[C@H](NC(=S)Nc2ccnc3cc(Cl)ccc23)[C@H](/C=C/c2ccccc2)N1c1ccc(Cl)cc1 | 8.75 |  |  | 
11 | CCCCNC(=S)N[C@@H]1C(=O)N(c2ccc(C)cc2)[C@@H]1/C=C/c1ccccc1 | > 10 |  |  | 
12 | CC(C)CN1C(=O)/C(=C/C=C/c2ccccc2)NC1=S | > 10 |  |  | 
13 | O=C1[C@H](NC(=S)Nc2ccnc3cc(Cl)ccc23)[C@H](/C=C/c2ccccc2)N1c1ccc(Br)cc1 | 5.72 |  |  | 
14 | O=C1/C(=C/C=C/c2ccccc2)NC(=S)N1CCCNc1ccnc2cc(Cl)ccc12 | 0.0425 | 19.9 | 91 | 2139
15 | O=C1/C(=C/C=C/c2ccccc2)NC(=S)N1c1ccc(F)cc1 | > 10 |  |  | 
16 | O=C1/C(=C/C=C/c2ccccc2)NC(=S)N1C1CCCCC1 | > 10 |  |  | 
17 | Cc1ccc(N2C(=O)[C@@H](NC(=S)NCC(C)C)[C@H]2/C=C/c2ccccc2)cc1 | > 10 |  |  | 
18 | Cc1ccc(N2C(=O)/C(=C/C=C/c3ccccc3)NC2=S)cc1 | > 10 |  |  | 
19 | Cc1ccc(NC(=S)N[C@@H]2C(=O)N(c3ccc(C)cc3)[C@@H]2/C=C/c2ccccc2)cc1 | > 10 |  |  | 
20 | O=C1[C@H](NC(=S)Nc2ccnc3cc(Cl)ccc23)[C@H](/C=C/c2ccccc2)N1c1ccccc1 | > 10 |  |  | 
21 | Cc1ccc(N2C(=O)[C@@H](NC(=S)NC3CCCCC3)[C@H]2/C=C/c2ccccc2)cc1 | > 10 |  |  | 
